Experimental data taken from PubChem BioAssay (NCI).
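Each compound was tested at five concentrations against cells in 96-well plates for 48 hours. The concentration for full growth arrest is given as TGI.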

Legend:
Assay in all cases: NCI-60 cell line screen, 48 h
ACHN renal = test system: ACHN renal
RPMI-8226 leukemia = test system: RPMI-8226 leukemia
NCI-H226 lung = test system: NCI-H226 lung
SW-620 colon = test system: SW-620 colon
A549 NSCLC = test system: A549 NSCLC
HT29 colon = test system: HT29 colon
M19-MEL melanoma = test system: M19-MEL melanoma
MOLT-4 leukemia = test system: MOLT-4 leukemia
MALME-3M melanoma = test system: MALME-3M melanoma
SF-539 CNS = test system: SF-539 CNS
IGROV1 ovarian = test system: IGROV1 ovarian
SK-OV-3 ovarian = test system: SK-OV-3 ovarian
TK-10 renal = test system: TK-10 renal
SNB-78 CNS = test system: SNB-78 CNS
KM20L2 colon = test system: KM20L2 colon
SK-MEL-5 melanoma = test system: SK-MEL-5 melanoma
SN12C renal = test system: SN12C renal
DMS 114 small cell lung = test system: DMS 114 small cell lung
U251 CNS = test system: U251 CNS
K-562 leukemia = test system: K-562 leukemia
NCI-H460 lung = test system: NCI-H460 lung
HL-60(TB) leukemia = test system: HL-60(TB) leukemia
HCT-116 colon = test system: HCT-116 colon
A498 renal = test system: A498 renal
SNB-75 CNS = test system: SNB-75 CNS
SK-MEL-2 melanoma = test system: SK-MEL-2 melanoma
NCI-H23 lung = test system: NCI-H23 lung
UACC-257 melanoma = test system: UACC-257 melanoma
KM12 colon = test system: KM12 colon
CCRF-CEM leukemia = test system: CCRF-CEM leukemia
LOX IMVI melanoma = test system: LOX IMVI melanoma
OVCAR-3 ovarian = test system: OVCAR-3 ovarian
OVCAR-5 ovarian = test system: OVCAR-5 ovarian
OVCAR-8 ovarian = test system: OVCAR-8 ovarian
SK-MEL-28 melanoma = test system: SK-MEL-28 melanoma
UACC-62 melanoma = test system: UACC-62 melanoma
LXFL 529 NSCLC = test system: LXFL 529 NSCLC
UO-31 renal = test system: UO-31 renal
SF-295 CNS = test system: SF-295 CNS
SF-268 CNS = test system: SF-268 CNS
M14 melanoma = test system: M14 melanoma
HCC-2998 colon = test system: HCC-2998 colon
DLD-1 colon = test system: DLD-1 colon
CAKI-1 renal = test system: CAKI-1 renal
EKVX NSCLC = test system: EKVX NSCLC
RXF 393 renal = test system: RXF 393 renal
HOP-92 NSCLC = test system: HOP-92 NSCLC
HOP-62 NSCLC = test system: HOP-62 NSCLC
786-0 renal = test system: 786-0 renal
HCT-15 colon = test system: HCT-15 colon
COLO 205 colon = test system: COLO 205 colon
PC-3 prostate = test system: PC-3 prostate
DMS 273 small cell lung = test system: DMS 273 small cell lung
DU-145 prostate = test system: DU-145 prostate
HOP-18 NSCLC = test system: HOP-18 NSCLC
SNB-19 CNS = test system: SNB-19 CNS
MDA-MB-435 = test system: MDA-MB-435
NCI-H522 lung = test system: NCI-H522 lung
OVCAR-4 ovarian = test system: OVCAR-4 ovarian
SR leukemia = test system: SR leukemia
HS 578T breast = test system: HS 578T breast
T-47D breast = test system: T-47D breast
BT-549 breast = test system: BT-549 breast
MDA-MB-231 breast = test system: MDA-MB-231 breast
MCF7 breast = test system: MCF7 breast

CN(C)c1ccc(/C=C(/C(=O)O)c2csc(-c3nc(/C(=C\c4ccc(N(C)C)cc4)C(=O)O)cs3)n2)cc1
TGI (ACHN renal): > 100 µM
TGI (RPMI-8226 leukemia): > 100 µM
TGI (NCI-H226 lung): > 100 µM
TGI (SW-620 colon): > 100 µM
TGI (A549 NSCLC): > 100 µM
TGI (HT29 colon): > 100 µM
TGI (M19-MEL melanoma): > 100 µM
TGI (MOLT-4 leukemia): > 100 µM
TGI (MALME-3M melanoma): > 100 µM
TGI (SF-539 CNS): > 100 µM
TGI (IGROV1 ovarian): > 100 µM
TGI (SK-OV-3 ovarian): > 100 µM
TGI (TK-10 renal): > 100 µM
TGI (SNB-78 CNS): > 100 µM
TGI (KM20L2 colon): > 100 µM
TGI (SK-MEL-5 melanoma): > 100 µM
TGI (SN12C renal): > 100 µM
TGI (DMS 114 small cell lung): > 100 µM
TGI (U251 CNS): > 100 µM
TGI (K-562 leukemia): > 100 µM
TGI (NCI-H460 lung): > 100 µM
TGI (HL-60(TB) leukemia): > 100 µM
TGI (HCT-116 colon): > 100 µM
TGI (A498 renal): > 100 µM
TGI (SNB-75 CNS): > 100 µM
TGI (SK-MEL-2 melanoma): > 100 µM
TGI (NCI-H23 lung): > 100 µM
TGI (UACC-257 melanoma): > 100 µM
TGI (KM12 colon): > 100 µM
TGI (CCRF-CEM leukemia): > 100 µM
TGI (LOX IMVI melanoma): > 100 µM
TGI (OVCAR-3 ovarian): > 100 µM
TGI (OVCAR-5 ovarian): > 100 µM
TGI (OVCAR-8 ovarian): > 100 µM
TGI (SK-MEL-28 melanoma): > 100 µM
TGI (UACC-62 melanoma): > 100 µM
TGI (LXFL 529 NSCLC): > 100 µM
TGI (UO-31 renal): > 100 µM
TGI (SF-295 CNS): > 100 µM
TGI (SF-268 CNS): > 100 µM
TGI (M14 melanoma): > 100 µM
TGI (HCC-2998 colon): > 100 µM
TGI (DLD-1 colon): > 100 µM
TGI (CAKI-1 renal): > 100 µM
TGI (EKVX NSCLC): > 100 µM
TGI (RXF 393 renal): > 100 µM
TGI (HOP-92 NSCLC): > 100 µM
TGI (HOP-62 NSCLC): > 100 µM
TGI (786-0 renal): > 100 µM
TGI (HCT-15 colon): > 100 µM
TGI (COLO 205 colon): > 100 µM

Cc1cc(=O)[nH]c(NN2C(Cl)C(=O)C2c2ccc(O)cc2)n1 (stereo not drawn)
TGI (PC-3 prostate): 26.8 µM
TGI (DMS 273 small cell lung): 18.1 µM
TGI (ACHN renal): 22 µM
TGI (RPMI-8226 leukemia): 5.59 µM
TGI (NCI-H226 lung): 32.6 µM
TGI (SW-620 colon): 28.9 µM
TGI (A549 NSCLC): 31.2 µM
TGI (HT29 colon): 35.1 µM
TGI (DU-145 prostate): 22.8 µM
TGI (M19-MEL melanoma): 23.1 µM
TGI (MOLT-4 leukemia): > 79.2 µM
TGI (HOP-18 NSCLC): 27.8 µM
TGI (MALME-3M melanoma): 30.7 µM
TGI (SF-539 CNS): 24.3 µM
TGI (IGROV1 ovarian): 21.7 µM
TGI (SK-OV-3 ovarian): 23.4 µM
TGI (TK-10 renal): 31.7 µM
TGI (SNB-78 CNS): 24.2 µM
TGI (KM20L2 colon): 46.5 µM
TGI (SK-MEL-5 melanoma): 21.5 µM
TGI (SN12C renal): 23.5 µM
TGI (SNB-19 CNS): 23.2 µM
TGI (MDA-MB-435): 20.5 µM
TGI (U251 CNS): 18.4 µM
TGI (NCI-H460 lung): 18.1 µM
TGI (HL-60(TB) leukemia): 7.69 µM
TGI (NCI-H522 lung): 32.8 µM
TGI (HCT-116 colon): 14.3 µM
TGI (A498 renal): 21.5 µM
TGI (OVCAR-4 ovarian): 19 µM
TGI (SNB-75 CNS): 7.92 µM
TGI (SK-MEL-2 melanoma): 29.5 µM
TGI (SR leukemia): > 25.6 µM
TGI (UACC-257 melanoma): 26.1 µM
TGI (KM12 colon): 25 µM
TGI (LOX IMVI melanoma): 7.27 µM
TGI (OVCAR-3 ovarian): 18.9 µM
TGI (OVCAR-5 ovarian): 35.2 µM
TGI (OVCAR-8 ovarian): 28.6 µM
TGI (SK-MEL-28 melanoma): 24.1 µM
TGI (UACC-62 melanoma): 18.7 µM
TGI (LXFL 529 NSCLC): 22.2 µM
TGI (UO-31 renal): 22.4 µM
TGI (SF-295 CNS): 21.4 µM
TGI (SF-268 CNS): 32.3 µM
TGI (M14 melanoma): 24.6 µM
TGI (HCC-2998 colon): 23.3 µM
TGI (CAKI-1 renal): 20.4 µM
TGI (EKVX NSCLC): 18.3 µM
TGI (HS 578T breast): 51.7 µM
TGI (RXF 393 renal): 17.2 µM
TGI (T-47D breast): 32.2 µM
TGI (BT-549 breast): 27.1 µM
TGI (MDA-MB-231 breast): 30 µM
TGI (HOP-92 NSCLC): 29.4 µM
TGI (HOP-62 NSCLC): 19 µM
TGI (786-0 renal): 18.2 µM
TGI (HCT-15 colon): 15.4 µM
TGI (COLO 205 colon): 40.7 µM
TGI (MCF7 breast): 27.4 µM

CC1(C)CC2(S(=O)(=O)c3ccccc3)ON1CC2S(=O)(=O)c1ccccc1 (stereo not drawn)
TGI (DMS 273 small cell lung): > 100 µM
TGI (ACHN renal): > 100 µM
TGI (RPMI-8226 leukemia): > 100 µM
TGI (NCI-H226 lung): > 100 µM
TGI (SW-620 colon): > 100 µM
TGI (A549 NSCLC): > 100 µM
TGI (HT29 colon): > 100 µM
TGI (M19-MEL melanoma): > 100 µM
TGI (MOLT-4 leukemia): > 100 µM
TGI (MALME-3M melanoma): > 100 µM
TGI (SF-539 CNS): > 100 µM
TGI (IGROV1 ovarian): > 100 µM
TGI (SK-OV-3 ovarian): > 100 µM
TGI (TK-10 renal): > 100 µM
TGI (KM20L2 colon): > 100 µM
TGI (SN12C renal): > 100 µM
TGI (DMS 114 small cell lung): > 100 µM
TGI (SNB-19 CNS): > 100 µM
TGI (U251 CNS): > 100 µM
TGI (K-562 leukemia): > 100 µM
TGI (NCI-H460 lung): > 100 µM
TGI (HL-60(TB) leukemia): 78.5 µM
TGI (NCI-H522 lung): > 100 µM
TGI (HCT-116 colon): > 100 µM
TGI (OVCAR-4 ovarian): > 100 µM
TGI (SNB-75 CNS): > 100 µM
TGI (SK-MEL-2 melanoma): > 100 µM
TGI (SR leukemia): > 100 µM
TGI (NCI-H23 lung): > 100 µM
TGI (UACC-257 melanoma): > 100 µM
TGI (KM12 colon): > 100 µM
TGI (CCRF-CEM leukemia): 89.9 µM
TGI (LOX IMVI melanoma): > 100 µM
TGI (OVCAR-3 ovarian): > 100 µM
TGI (OVCAR-5 ovarian): > 100 µM
TGI (OVCAR-8 ovarian): > 100 µM
TGI (SK-MEL-28 melanoma): > 100 µM
TGI (UACC-62 melanoma): > 100 µM
TGI (LXFL 529 NSCLC): > 100 µM
TGI (UO-31 renal): > 100 µM
TGI (SF-295 CNS): > 100 µM
TGI (SF-268 CNS): > 100 µM
TGI (M14 melanoma): > 100 µM
TGI (HCC-2998 colon): > 100 µM
TGI (DLD-1 colon): > 100 µM
TGI (CAKI-1 renal): > 100 µM
TGI (EKVX NSCLC): > 100 µM
TGI (RXF 393 renal): > 100 µM
TGI (HOP-62 NSCLC): > 100 µM
TGI (786-0 renal): > 100 µM
TGI (HCT-15 colon): > 100 µM
TGI (COLO 205 colon): > 100 µM
